In ChEMBL document CHEMBL1156762, “Deciphering the mechanism of carbonic anhydrase inhibition with coumarins and thiocoumarins” (J Med Chem, 2010):

Columns and labels:
Carbonic anhydrase 9 = Carbonic anhydrase 9 (Homo sapiens, UniProt Q16790)
Carbonic anhydrase 13 = Carbonic anhydrase 13 (Mus musculus, UniProt Q9D6N1)
Carbonic anhydrase 3 = Carbonic anhydrase 3 (Homo sapiens, UniProt P07451)
Carbonic anhydrase 4 = Carbonic anhydrase 4 (Homo sapiens, UniProt P22748)
[1] = target: Carbonic anhydrase 5A, mitochondrial (Homo sapiens, UniProt P35218)
Sequence of Carbonic anhydrase 5A, mitochondrial (P35218 whole entry): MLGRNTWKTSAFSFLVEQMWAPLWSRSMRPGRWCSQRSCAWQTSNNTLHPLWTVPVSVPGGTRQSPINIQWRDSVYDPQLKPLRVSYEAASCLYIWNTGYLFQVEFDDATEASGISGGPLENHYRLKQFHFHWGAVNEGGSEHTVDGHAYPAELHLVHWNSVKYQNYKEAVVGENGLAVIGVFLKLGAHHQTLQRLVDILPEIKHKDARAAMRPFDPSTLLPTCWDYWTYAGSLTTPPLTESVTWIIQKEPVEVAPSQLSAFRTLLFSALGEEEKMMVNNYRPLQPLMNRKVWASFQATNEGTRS

[2] = target: Carbonic anhydrase 5B, mitochondrial (Homo sapiens, UniProt Q9Y2D0)
Sequence of Carbonic anhydrase 5B, mitochondrial (Q9Y2D0 whole entry): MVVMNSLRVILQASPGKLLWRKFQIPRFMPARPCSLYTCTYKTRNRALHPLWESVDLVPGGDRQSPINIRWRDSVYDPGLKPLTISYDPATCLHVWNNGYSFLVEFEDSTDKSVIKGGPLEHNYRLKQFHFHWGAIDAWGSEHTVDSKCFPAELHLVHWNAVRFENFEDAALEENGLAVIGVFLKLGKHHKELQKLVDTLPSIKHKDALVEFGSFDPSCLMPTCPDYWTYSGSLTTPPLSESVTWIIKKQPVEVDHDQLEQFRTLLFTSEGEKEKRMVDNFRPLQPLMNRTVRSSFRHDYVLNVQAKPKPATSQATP

Carbonic anhydrase 6 = Carbonic anhydrase 6 (Homo sapiens, UniProt P23280)
Sequence of Carbonic anhydrase 6 (P23280 whole entry): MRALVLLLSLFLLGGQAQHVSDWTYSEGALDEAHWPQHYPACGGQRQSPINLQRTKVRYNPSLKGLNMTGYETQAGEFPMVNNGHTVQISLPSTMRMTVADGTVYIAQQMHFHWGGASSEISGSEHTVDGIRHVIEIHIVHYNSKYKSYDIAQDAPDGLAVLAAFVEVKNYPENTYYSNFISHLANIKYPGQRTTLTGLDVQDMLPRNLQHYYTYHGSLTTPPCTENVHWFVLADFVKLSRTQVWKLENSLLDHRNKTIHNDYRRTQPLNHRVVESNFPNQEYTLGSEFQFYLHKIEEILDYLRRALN

Carbonic anhydrase 7 = Carbonic anhydrase 7 (Homo sapiens, UniProt P43166)
Sequence of Carbonic anhydrase 7 (P43166 whole entry): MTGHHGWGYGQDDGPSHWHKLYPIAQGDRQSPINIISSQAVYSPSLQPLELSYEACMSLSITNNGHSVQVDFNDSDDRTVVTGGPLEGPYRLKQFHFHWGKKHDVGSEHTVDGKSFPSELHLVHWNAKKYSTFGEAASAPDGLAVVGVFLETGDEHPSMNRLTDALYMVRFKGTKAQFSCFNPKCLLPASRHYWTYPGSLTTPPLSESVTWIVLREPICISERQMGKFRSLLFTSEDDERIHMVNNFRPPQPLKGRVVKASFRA

Carbonic anhydrase 12 = Carbonic anhydrase 12 (Homo sapiens, UniProt O43570)
Sequence of Carbonic anhydrase 12 (O43570 whole entry): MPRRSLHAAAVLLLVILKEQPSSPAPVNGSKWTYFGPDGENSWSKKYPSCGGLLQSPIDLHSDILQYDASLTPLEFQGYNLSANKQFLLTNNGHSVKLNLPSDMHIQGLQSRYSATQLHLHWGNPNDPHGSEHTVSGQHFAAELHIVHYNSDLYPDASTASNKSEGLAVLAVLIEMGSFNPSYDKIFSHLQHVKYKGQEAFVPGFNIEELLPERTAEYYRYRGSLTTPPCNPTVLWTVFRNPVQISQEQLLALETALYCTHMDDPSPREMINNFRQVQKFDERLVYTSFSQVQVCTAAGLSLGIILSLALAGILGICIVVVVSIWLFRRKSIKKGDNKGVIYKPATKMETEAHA

Carbonic anhydrase 14 = Carbonic anhydrase 14 (Homo sapiens, UniProt Q9ULX7)
Sequence of Carbonic anhydrase 14 (Q9ULX7 whole entry): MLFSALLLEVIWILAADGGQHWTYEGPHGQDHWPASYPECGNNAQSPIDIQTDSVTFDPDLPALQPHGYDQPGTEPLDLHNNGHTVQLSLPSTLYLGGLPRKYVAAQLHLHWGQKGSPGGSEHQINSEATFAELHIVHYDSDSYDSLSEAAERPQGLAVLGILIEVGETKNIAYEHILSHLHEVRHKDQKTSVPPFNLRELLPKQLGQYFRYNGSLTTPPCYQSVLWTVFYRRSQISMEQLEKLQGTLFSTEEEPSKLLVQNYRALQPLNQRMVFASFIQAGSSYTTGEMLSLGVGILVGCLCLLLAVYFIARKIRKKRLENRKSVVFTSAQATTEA

Carbonic anhydrase 15 = target: T1, Carbonic anhydrase 15 (Mus musculus, UniProt Q99N23)
T1 sequence (Q99N23 whole entry): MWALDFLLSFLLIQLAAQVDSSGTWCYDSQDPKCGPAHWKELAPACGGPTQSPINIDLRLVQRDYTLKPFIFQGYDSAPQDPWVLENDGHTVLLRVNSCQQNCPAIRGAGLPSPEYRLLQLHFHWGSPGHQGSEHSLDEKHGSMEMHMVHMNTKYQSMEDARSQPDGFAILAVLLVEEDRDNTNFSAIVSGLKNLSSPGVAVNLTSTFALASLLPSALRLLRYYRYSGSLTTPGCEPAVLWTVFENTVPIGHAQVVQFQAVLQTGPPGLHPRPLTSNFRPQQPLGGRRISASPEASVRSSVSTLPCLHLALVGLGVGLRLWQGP

Carbonic anhydrase 2 [3] = target: T2, Carbonic anhydrase 2 (Homo sapiens, UniProt P00918)
Carbonic anhydrase 2 [4] = target: T2, Carbonic anhydrase 2; remark: listed apart in the source

Sequence of Carbonic anhydrase 3 (P07451 whole entry): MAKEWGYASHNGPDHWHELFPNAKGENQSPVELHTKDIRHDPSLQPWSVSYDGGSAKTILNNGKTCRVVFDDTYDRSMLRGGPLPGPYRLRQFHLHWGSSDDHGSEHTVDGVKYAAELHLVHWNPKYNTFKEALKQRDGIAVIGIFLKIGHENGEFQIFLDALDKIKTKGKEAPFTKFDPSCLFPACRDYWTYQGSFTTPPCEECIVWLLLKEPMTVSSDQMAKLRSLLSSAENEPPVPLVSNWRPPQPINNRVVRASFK
Sequence of Carbonic anhydrase 13 (Q9D6N1 whole entry): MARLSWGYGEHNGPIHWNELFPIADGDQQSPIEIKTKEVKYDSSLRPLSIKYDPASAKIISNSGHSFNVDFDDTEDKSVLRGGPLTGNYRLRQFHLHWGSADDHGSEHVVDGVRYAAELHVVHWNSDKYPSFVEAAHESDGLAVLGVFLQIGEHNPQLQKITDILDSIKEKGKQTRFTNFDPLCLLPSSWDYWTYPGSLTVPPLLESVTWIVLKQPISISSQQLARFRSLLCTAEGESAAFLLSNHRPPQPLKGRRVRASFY
Sequence of Carbonic anhydrase 4 (P22748 whole entry): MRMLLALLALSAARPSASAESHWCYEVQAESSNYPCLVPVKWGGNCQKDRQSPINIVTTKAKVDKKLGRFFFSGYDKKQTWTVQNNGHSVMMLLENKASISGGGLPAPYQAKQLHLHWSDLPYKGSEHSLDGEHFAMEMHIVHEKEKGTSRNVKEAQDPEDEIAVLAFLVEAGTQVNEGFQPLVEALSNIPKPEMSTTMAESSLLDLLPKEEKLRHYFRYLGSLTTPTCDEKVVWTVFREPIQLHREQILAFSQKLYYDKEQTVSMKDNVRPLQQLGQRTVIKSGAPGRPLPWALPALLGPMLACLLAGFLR

| Compound | Ki (Carbonic anhydrase 9) | Ki (Carbonic anhydrase 13) | Ki (Carbonic anhydrase 3) | Ki (Carbonic anhydrase 4) | Ki [1] | Ki [2] | Ki (Carbonic anhydrase 6) | Ki (Carbonic anhydrase 7) | Ki (Carbonic anhydrase 12) | Ki (Carbonic anhydrase 14) | Ki (Carbonic anhydrase 15) | Ki (Carbonic anhydrase 2 [3]) | Ki (Carbonic anhydrase 2 [4]) |
| --- | --- | --- | --- | --- | --- | --- | --- | --- | --- | --- | --- | --- | --- |
| COc1ccc2c(C(=O)O)cc(=O)oc2c1 | 4.1 µM | 0.045 µM |  |  |  |  |  |  |  |  |  |  |  |
| O=c1ccc2ccc(CCc3ccccc3)cc2o1 | 5.8 µM | 7.3 µM |  |  |  |  | 8.5 µM |  |  |  | 44.5 µM |  |  |
| O=c1ccc2cc(CO)ccc2o1 | 8.4 µM | 0.047 µM |  |  |  |  |  |  |  |  | 7.4 µM |  |  |
| COc1cc2oc(=O)ccc2cc1[C@@H](O)CC(C)C |  | 9.9 µM |  |  |  |  |  |  |  |  | 93.1 µM |  |  |
| Cc1ccc2oc(=O)c(C(=O)O)cc2c1 | 0.048 µM |  | > 500 µM |  |  |  | 31.7 µM | 29.6 µM |  |  |  |  |  |
| O=c1ccc2cc(C[N+]34CN5CN(CN(C5)C3)C4)ccc2o1 | 3 µM | 3.8 µM |  |  |  |  |  |  |  |  |  |  |  |
| CCCCOc1ccc2ccc(=O)oc2c1 [7-BUTOXYCOUMARIN] | 4.9 µM | 6.1 µM |  |  | 9 µM |  |  |  |  |  | 65.2 µM |  |  |
| CCCOc1ccc2ccc(=O)oc2c1 [7-PROPOXYCOUMARIN] |  | 6.6 µM | > 500 µM | 24.6 µM |  |  |  |  |  |  |  |  |  |
| O=c1ccc2ccccc2o1 [COUMARIN] |  |  | 5.6 µM | 62.2 µM |  |  |  | 3.3 µM |  |  |  |  |  |

Now from value to compound:

| Ki (Carbonic anhydrase 9) | Ki (Carbonic anhydrase 13) | Ki (Carbonic anhydrase 3) | Ki (Carbonic anhydrase 4) | Ki [1] | Ki [2] | Ki (Carbonic anhydrase 6) | Ki (Carbonic anhydrase 7) | Ki (Carbonic anhydrase 12) | Ki (Carbonic anhydrase 14) | Ki (Carbonic anhydrase 15) | Ki (Carbonic anhydrase 2 [3]) | Ki (Carbonic anhydrase 2 [4]) | Compound |
| --- | --- | --- | --- | --- | --- | --- | --- | --- | --- | --- | --- | --- | --- |
| 1.6 µM | 27.4 µM | 29 µM | 22.7 µM | 7.3 µM | 60.9 µM | 5.8 µM | 7.2 µM | 4.7 µM | 4.7 µM | 76.3 µM |  |  | CCOc1ccc2ccc(=O)oc2c1 |
| 8.4 µM | 0.04 µM |  |  |  |  |  |  |  |  |  |  |  | NCc1ccc2oc(=O)ccc2c1 |
| 8.7 µM | 7.4 µM |  | 6.5 µM |  |  |  |  |  |  | 7.4 µM |  |  | COC(=O)c1cc2cc(CO)ccc2oc1=O |
| 6.2 µM |  | 60.9 µM | 0.048 µM | 3 µM | 2.9 µM | 1.5 µM | 0.045 µM | 25.6 µM | 4.6 µM |  | 24.6 µM | 213 µM | CCOC(=O)c1cc2cc(CO)ccc2oc1=O |
| 5.4 µM |  |  |  |  |  |  |  |  |  |  |  |  | COc1cccc2cc(C(=O)O)c(=O)oc12 |
|  | 0.045 µM | 71.7 µM | 7.2 µM |  | 8 µM | 42 µM |  |  |  | 6.6 µM |  |  | CCOC(=O)c1cc2ccc(OC)cc2oc1=O |
| 5.7 µM | 8.1 µM | 9 µM | 4.9 µM | 8.7 µM | 7.6 µM | 10.5 µM | 4.9 µM | 6.8 µM | 39.6 µM | 7.2 µM | 13.4 µM | 0.059 µM | COc1ccc2oc(=O)c(C(=O)O)cc2c1 |
|  | 3.1 µM |  |  |  |  |  |  |  |  | 8.6 µM |  |  | O=C(O)c1cc2cc(CO)ccc2oc1=O |
|  | 5.6 µM | > 500 µM |  |  |  | 8.8 µM |  |  |  | 4.8 µM |  |  | O=C(O)c1cc2ccccc2sc1=O |
| 6.5 µM | 20.3 µM | 6.6 µM | 3.8 µM | 9 µM | 6.8 µM | 31.3 µM | 5.1 µM | 2.9 µM | 7.4 µM | 5.6 µM | > 500 µM |  | O=C(O)c1cc2ccccc2oc1=O [COUMARIN-3-CARBOXYLIC ACID] |
|  |  | 161 µM | 7.8 µM | > 500 µM |  | 61.2 µM | 9.1 µM |  |  | > 500 µM |  |  | COc1ccc2ccc(=O)oc2c1 [HERNIARIN] |
